According to US6887712B1, “Methods and compositions to lower plasma cholesterol levels” (AtheroGenics, Inc., priority 1998, dated 2005):

What was measured:
[1] = tested on: plasma cholesterol; assay: Plasma cholesterol lowering in hamsters; set-up: species or system hamster; settings: ability to lower plasma cholesterol in vivo in hamsters, yes/no
Procedure: The monosuccinic acid ester of probucol and several other compounds were tested in vitro in the immunoreactivity cell-free assay described above in Example 3 and in vivo in hamsters for their ability to lower plasma cholesterol.

[2] = molecular target: T1, apoB-100 epitope in VLDL (Homo sapiens, UniProt P04114); assay: Immunoreactivity sandwich ELISA with VLDL; type: binding; settings: FIG. 6b
T1 construct: relative to the native VLDL; from tissue; host or cells: VLDL particles (plasma lipoprotein)
From the text: (§1) To determine if the binding of the monosuccinic acid ester to VLDL and LDL can cause a change in the structure of apoB-100, an immunoreactivity assay was designed. This is a sandwich ELISA assay which measures the expression of a specific epitope on apoB-100. Essentially the sandwich ELISA consists of a specific monoclonal antibody directed to that epitope on apoB-100 as a capture antibody laid onto a microtitre plate. LDL or VLDL added to the plate is bound to the antibody as a result of recognition of the specific epitope. A second polyclonal antibody is then used to quantify the amount of LDL captured.

[3] = tested on: HepG2 cells; assay: Uptake of radioiodinated human LDL by HepG2 cells; type: cell-based; settings: HepG2, 24 h
Procedure: In order to test whether the change in structure of LDL by the monosuccinic acid ester of probucol can affect the uptake of this lipoprotein by liver cells in vitro, purified human radioiodinated LDL was mixed with various concentrations of the probucol derivative and incubated for 15 minutes at room temperature. After that, the mixture of LDL and the probucol derivative was added to HepG2 cells in culture and the uptake of radiolabeled LDL measured after 24 h. At each concentration of compound, the specific uptake of LDL was also determined by examining LDL uptake in the presence of excess unlabeled LDL.

[4] = rabbit, in vivo, po, 150 mg/kg/day
Procedure: To examine if the monosuccinic acid ester of probucol partitions with plasma circulating lipoproteins, rabbits were fed a high-fat diet for six weeks and dosed with the compound at a dose of 150 mg/Kg per day orally. The animals were bled at six weeks and plasma lipoproteins isolated at high-speed using ultra-centrifugation.
Whole plasma was fractionated by fast phase liquid chromatography (FPLC) using a Superose 6HR 10/30 column. Elution was performed in a phosphate-buffered saline solution containing 0.01% EDTA and 0.02% NaN3 at a flow rate of 0.3 m/min. Approximately 0.6 ml was collected for each fraction and 20 fractions were available for analysis. The cholesterol content of the peaks corresponding to low density lipoprotein (LDL) and high density lipoprotein (HDL) were compared to CDC reference methods. VLDL corresponds to fractions 4-8 (elution volumes 7.2-9.6), LDL to fractions 9-16 (elution volume 10.2-14.4) and HDL to fractions 17-23 (elution volume 15-18.6).
The monosuccinic acid ester of probucol (MSE) levels in the different lipoprotein fractions were determined by high pressure liquid chromatography (HPLC) using a Rainin C 18 column (830201-C). Fractions corresponding to the different lipoprotein fractions were pooled and dried down by centrifugation under vacuum and resuspended in 0.5 ml of phosphate buffered saline. MSE was extracted with 0.5 ml of ether. 100 ul of the ether solution was added to 400 ul of acetonitrile and 0.02 ml was loaded onto the column. The mobile phase was 75:20:5 acetonitrile, methanol, and 50 mM acetic acid in methanol.
The amount of the MSE bound to each of the lipoproteins was estimated.

[5] = tested on: VLDL and LDL clearance; assay: Lipoprotein turnover study in monkeys (stable isotope labelling of apoB-100); type: in vivo, monkey; settings: monkeys, 25 mg/kg/day
Procedure: A lipoprotein turnover study was performed in monkeys that were dosed with the monosuccinic acid ester of probucol (25 mg/kg/day for one four weeks). The clearance rates of VLDL and LDL were examined before and after treatment of the animals using a stable isotope technique to label apoB-100 in VLDL and LDL.

[6] = tested on: total plasma cholesterol; assay: Cholesterol lowering in mice lacking functional LDL receptors; type: in vivo, mouse; settings: LDL receptor-deficient mice, 150 mg/kg/day oral with high fat/high cholesterol diet, 12 weeks
Procedure: To explore whether the enhanced clearance is mediated by the tissue LDL receptors, the major clearance mechanism for LDL in the body, the LDL lowering activity of the monosuccinic acid ester of probucol was tested in a mouse model that lacks functional LDL receptors (eliminated through genetic engineering).

[7] = molecular target: T2, other epitopes on LDL apoB-100 (Homo sapiens, UniProt P04114); assay: Epitope specificity: four other monoclonal antibodies (1D, 2D8, 5E11, 4G3) against apoB-100 on LDL; type: binding
T2 construct: from tissue; host or cells: LDL particles (plasma lipoprotein)
From the text: The specificity of epitope expression changes by the monosuccinic acid ester of probucol were established by examining MSE's effects on other epitopes on LDL. This was probed by using four other monoclonal antibodies (1D, 2D8, 5E11, 4G3) in comparison to the Boehringer Mannheim (Band M) antibody used in the assays described above.

[8] = molecular target: T3, purified human LDL (Homo sapiens, UniProt P04114); assay: Agarose electrophoresis of purified human LDL mixed with compound; type: binding
T3 construct: from tissue; host or cells: human LDL particles (plasma lipoprotein)
Procedure: Agarose electrophoresis is a technique used to separate and study lipoproteins. The monosuccinic acid ester of probucol was added to purified human LDL and the mixture was run on agarose electrophoresis.

[9] = molecular target: T4, specific epitope on apoB-100 of LDL (Homo sapiens, UniProt P04114); assay: Immunoreactivity cell-free sandwich ELISA: binding of LDL to capture anti-apoB monoclonal antibody
T4 construct: from tissue; host or cells: LDL particles (plasma lipoprotein)
From the text: as §1, with “LDL or VLDL added to the plate is bound to the antibody as a result of recognition of the specific epitope.” left out
The detailed immunoreactivity protocol is as follows. A nunc maxi-sorp microtiter plate is coated overnight at 4° C. with 100 μl of Anti-Human ApoB monoclonal antibody from Boehringer Mannheim (catalog # 1533 975) diluted 1:1000 in PBS pH 7.4. The compounds are dissolved in DMSO with appropriate concentration of LDL for 15 minutes and incubated at 37° C.
The coated microtiter plate is washed three times with 200 μl PBS/0.05% tween, and a sample of 100 μl LDL/Compound or LDL standard is added to each well. The plates are then incubated for 2 hours at room temperature.
The microtiter plate is washed three times with 200 μl PBS/0.05% tween, and 100 μl of 1:2000 Polyclonal Human Anti-ApolipoproteinB from Boehringer Mannheim (catalog # 726 494) in PBS/tween 0.05% is added. The plate is incubated for one hour at room temperature.
The microtiter plate is washed three times with 200 ul PBS/0.05% tween, and 100 μl of 1:2000 Anti-Sheep Ig peroxidase from Boehringer Mannheim (catalog # 605 345) in PBS/05% tween is added. The plate is incubated for one hour at room temperature.
The microtiter plate is washed three times with 200 ul PBS/0.05% tween, and 100 μl of TMB substrate is added and incubated for 5-10 minutes in the dark. The reaction is stopped with 15 μl 8N H2SO4 and read on the Bio-Rad Microplate plate reader at 450 nm within 30 minutes.

T4 sequence (P04114 28-4563): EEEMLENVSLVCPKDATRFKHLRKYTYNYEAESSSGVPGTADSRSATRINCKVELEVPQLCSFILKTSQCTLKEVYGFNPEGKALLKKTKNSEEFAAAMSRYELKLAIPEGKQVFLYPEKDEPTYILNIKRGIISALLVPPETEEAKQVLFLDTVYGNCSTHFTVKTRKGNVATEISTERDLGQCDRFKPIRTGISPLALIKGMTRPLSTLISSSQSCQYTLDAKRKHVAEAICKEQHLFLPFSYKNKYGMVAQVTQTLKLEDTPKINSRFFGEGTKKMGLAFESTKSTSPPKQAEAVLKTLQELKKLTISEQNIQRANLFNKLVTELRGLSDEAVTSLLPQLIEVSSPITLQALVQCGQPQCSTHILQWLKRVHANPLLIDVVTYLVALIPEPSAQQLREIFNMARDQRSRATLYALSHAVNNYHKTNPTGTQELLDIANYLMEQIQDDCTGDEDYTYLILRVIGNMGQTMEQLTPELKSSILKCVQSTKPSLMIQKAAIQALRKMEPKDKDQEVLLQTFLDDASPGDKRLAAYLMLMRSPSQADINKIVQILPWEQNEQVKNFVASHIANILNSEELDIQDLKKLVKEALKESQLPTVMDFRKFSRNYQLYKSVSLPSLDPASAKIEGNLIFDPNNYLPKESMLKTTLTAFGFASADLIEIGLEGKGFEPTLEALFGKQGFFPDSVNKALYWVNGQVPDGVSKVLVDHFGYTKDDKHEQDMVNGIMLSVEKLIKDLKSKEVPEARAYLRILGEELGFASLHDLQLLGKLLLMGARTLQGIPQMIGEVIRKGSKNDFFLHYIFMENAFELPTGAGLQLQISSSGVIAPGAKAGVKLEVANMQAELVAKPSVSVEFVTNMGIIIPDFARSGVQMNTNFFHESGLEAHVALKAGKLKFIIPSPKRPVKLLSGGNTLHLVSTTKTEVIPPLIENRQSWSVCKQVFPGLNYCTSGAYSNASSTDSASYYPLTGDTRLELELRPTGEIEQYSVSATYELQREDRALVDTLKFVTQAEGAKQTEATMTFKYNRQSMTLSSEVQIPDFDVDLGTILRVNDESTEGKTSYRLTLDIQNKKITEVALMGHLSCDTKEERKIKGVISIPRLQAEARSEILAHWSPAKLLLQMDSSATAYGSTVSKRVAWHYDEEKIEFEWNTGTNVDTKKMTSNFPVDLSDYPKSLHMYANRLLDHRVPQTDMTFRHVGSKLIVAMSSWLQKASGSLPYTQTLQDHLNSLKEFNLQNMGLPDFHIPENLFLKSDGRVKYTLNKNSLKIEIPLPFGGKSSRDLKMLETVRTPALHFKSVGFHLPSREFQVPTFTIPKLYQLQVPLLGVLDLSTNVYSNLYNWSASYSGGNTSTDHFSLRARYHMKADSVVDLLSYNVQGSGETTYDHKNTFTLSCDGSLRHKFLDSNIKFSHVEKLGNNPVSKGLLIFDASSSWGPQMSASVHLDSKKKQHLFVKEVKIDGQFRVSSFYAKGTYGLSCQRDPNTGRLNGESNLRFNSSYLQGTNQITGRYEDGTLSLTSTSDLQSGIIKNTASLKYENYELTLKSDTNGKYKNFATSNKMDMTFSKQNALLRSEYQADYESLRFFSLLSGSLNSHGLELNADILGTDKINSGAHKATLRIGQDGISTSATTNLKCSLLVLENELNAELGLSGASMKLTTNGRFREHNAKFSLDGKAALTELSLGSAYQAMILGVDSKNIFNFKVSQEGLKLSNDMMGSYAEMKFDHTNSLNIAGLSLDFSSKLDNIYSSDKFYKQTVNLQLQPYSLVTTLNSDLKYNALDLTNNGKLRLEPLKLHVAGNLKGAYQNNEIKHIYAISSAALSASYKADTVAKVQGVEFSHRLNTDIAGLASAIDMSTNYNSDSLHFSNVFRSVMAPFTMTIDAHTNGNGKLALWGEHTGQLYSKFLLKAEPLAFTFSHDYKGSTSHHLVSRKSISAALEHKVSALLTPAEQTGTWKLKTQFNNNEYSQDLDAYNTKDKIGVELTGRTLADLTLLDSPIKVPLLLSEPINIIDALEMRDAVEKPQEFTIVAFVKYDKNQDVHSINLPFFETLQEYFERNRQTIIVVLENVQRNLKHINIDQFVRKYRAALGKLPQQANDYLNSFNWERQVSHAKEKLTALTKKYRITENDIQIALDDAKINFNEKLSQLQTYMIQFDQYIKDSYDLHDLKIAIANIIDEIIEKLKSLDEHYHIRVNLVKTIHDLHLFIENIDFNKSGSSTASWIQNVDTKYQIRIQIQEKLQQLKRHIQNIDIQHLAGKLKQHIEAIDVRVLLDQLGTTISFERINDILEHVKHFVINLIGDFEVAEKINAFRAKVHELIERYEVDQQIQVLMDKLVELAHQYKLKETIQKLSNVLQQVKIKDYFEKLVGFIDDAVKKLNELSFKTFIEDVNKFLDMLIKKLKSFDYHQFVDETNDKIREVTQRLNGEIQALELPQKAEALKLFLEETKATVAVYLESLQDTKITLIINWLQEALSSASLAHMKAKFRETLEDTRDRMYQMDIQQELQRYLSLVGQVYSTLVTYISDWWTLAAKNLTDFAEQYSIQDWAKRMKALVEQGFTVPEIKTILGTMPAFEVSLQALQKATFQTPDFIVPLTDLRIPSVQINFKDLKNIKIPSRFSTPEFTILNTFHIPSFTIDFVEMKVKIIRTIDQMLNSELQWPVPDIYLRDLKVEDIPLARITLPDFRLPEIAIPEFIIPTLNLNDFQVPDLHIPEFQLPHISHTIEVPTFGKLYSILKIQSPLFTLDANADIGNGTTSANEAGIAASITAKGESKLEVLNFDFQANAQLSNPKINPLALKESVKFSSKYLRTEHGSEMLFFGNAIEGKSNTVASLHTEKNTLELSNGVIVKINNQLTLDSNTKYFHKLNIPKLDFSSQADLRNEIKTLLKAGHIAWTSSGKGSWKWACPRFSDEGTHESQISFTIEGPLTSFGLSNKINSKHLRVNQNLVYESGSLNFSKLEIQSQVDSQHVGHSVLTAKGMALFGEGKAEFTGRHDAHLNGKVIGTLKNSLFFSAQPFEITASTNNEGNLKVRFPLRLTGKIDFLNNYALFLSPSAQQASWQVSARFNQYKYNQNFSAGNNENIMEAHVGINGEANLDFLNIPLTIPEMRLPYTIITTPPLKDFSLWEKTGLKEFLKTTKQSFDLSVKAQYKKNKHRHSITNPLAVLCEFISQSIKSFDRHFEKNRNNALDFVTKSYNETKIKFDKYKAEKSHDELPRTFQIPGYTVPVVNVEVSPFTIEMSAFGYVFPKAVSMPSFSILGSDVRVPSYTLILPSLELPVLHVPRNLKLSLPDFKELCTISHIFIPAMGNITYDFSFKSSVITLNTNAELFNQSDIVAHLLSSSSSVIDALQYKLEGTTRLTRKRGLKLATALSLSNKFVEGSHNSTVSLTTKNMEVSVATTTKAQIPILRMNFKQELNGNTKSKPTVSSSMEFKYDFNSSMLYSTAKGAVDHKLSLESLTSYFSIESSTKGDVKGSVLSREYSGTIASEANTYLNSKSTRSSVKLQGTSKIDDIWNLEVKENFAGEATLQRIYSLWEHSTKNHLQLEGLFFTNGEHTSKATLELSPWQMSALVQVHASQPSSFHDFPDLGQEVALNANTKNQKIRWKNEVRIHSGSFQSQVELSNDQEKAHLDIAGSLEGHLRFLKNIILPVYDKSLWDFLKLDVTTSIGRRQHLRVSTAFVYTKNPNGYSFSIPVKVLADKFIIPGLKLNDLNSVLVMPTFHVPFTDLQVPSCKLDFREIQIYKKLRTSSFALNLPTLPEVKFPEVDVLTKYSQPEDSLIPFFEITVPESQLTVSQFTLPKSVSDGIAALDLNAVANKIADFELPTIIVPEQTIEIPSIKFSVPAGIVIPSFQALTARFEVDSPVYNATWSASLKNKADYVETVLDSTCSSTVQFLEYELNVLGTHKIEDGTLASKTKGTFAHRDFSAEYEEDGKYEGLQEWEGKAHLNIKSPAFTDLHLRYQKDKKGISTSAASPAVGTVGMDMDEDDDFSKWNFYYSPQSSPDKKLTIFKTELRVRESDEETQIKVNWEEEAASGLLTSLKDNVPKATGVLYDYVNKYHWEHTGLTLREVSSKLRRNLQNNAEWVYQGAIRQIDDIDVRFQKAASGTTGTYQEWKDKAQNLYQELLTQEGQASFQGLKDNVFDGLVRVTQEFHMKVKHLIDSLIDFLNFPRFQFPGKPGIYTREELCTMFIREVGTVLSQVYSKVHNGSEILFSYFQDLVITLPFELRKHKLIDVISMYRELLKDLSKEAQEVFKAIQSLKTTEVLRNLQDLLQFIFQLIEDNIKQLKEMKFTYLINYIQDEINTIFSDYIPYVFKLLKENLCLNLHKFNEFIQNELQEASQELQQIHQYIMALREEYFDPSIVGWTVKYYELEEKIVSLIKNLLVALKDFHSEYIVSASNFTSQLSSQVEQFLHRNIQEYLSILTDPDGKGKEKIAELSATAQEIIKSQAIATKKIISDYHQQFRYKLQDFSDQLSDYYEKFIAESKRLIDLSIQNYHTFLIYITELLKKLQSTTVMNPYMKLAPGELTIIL
T1 sequence (P04114 28-4563): as above
T2 sequence (P04114 28-4563): as above
T3 sequence (P04114 28-4563): as above

## CC(C)(Sc1cc(C(C)(C)C)c(O)c(C(C)(C)C)c1)Sc1cc(C(C)(C)C)c(OC(=O)CCC(=O)O)c(C(C)(C)C)c1 [MSE, Butanedioic acid, mono[4-[[1-[[3,5-bis(1,1-dimethylethyl)-4-hydroxyphenyl]thio]-1-methylethyl]thio]-2,6-bis(1,1-dimethylethyl)phenyl] ester]
[1]
  Hamster: yes
[2]
  increase of binding of VLDL apoB-100 epitope to the antibody relative to native VLDL: about 375%
[3]; 18 uM
  increase of specific uptake of LDL relative to absence of MSE: 12.8%
[3]; 25.5 uM
  increase of specific uptake of LDL relative to absence of MSE: 77.6%
[3]; 33 uM
  increase of specific uptake of LDL relative to absence of MSE: 249%
[4]
  MSE recovered in the different lipoprotein fractions: > 80%
  amount found in the non-lipoprotein plasma fraction: Very little
  distribution of MSE among lipoprotein fractions: most being found in the VLDL fraction, followed by LDL and some in IDL and HDL
[5]
  LDL clearance rates: increased
  clearance of VLDL after treatment relative to before dosing: marked enhancement
  production of VLDL or LDL: no apparent effects
[6]
  effect on total plasma cholesterol levels: did not result in any significant effects
[7]
  expression of epitopes detected by the other four antibodies against apoB-100: unaffected
[8]
  shift of electrophoretic mobility of LDL: shifted the mobility of LDL
[9]; 15 uM
  increase of binding of LDL to the capture monoclonal antibody: 300%
[9]; 30 uM
  increase of binding of LDL to the capture monoclonal antibody: 500%
[9]; FIG. 7
  epitope expression on LDL detected by the Boehringer Mannheim antibody: significantly enhanced
[9]; immunoreactivity cell-free assay of Example 3, yes/no
  Cell-Free Assay: yes
